How the values were obtained:
[1] = biological target: T1, GFP-tagged Ndc80 complex (Ndc80-GFP) (Homo sapiens, UniProt O14777); experiment: single-molecule TIRF, residence time of Ndc80-GFP on microtubules; type: biochemical; conditions: 10 μM VTT-006; Taxol-stabilized microtubules, BRB80 pH 6.9; Ndc80 6–10 pM
T1 construct: with Kinetochore protein Nuf2; Kinetochore protein Spc25; Kinetochore protein Spc24

[2] = biological target: T2, recombinant Ndc80 complex (Bonsai; Ndc80^bonsai) (Homo sapiens, UniProt O14777); experiment: fluorescence anisotropy of the compound (ex […] nm, em […] nm); type: binding; conditions: PBS, 23 °C; 5 μM VTT-006, 1–15 μM protein; one site model with ligand depletion
T2 construct: Ndc80 bonsai: globular domains with shortened rod; plasmid from A. Musacchio; E. coli BL21(DE3), GST cut off with PreScission; with Kinetochore protein Nuf2; Kinetochore protein Spc25; Kinetochore protein Spc24
T2 sequence (O14777 1-286 limits assumed): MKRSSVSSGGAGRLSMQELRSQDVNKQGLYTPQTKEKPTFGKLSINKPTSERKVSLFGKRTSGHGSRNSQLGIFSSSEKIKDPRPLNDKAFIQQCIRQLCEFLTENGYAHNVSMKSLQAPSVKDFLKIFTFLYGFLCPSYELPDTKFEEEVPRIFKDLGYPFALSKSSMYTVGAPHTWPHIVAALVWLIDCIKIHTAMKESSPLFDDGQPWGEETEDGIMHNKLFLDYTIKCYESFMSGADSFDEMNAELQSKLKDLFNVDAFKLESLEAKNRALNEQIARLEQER
T2 sequence (Q9BZD4 1-169 partner limits assumed): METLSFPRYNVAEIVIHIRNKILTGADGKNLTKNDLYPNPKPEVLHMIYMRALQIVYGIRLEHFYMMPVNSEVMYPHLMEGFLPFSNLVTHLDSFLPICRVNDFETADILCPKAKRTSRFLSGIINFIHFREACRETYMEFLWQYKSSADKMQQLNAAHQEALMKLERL
T2 sequence (Q9HBM1 118-224 partner limits assumed): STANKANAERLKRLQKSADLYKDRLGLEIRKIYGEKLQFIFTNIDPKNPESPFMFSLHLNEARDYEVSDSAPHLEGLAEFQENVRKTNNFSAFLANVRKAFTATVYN
T2 sequence (Q8NBT2 122-197 partner limits assumed): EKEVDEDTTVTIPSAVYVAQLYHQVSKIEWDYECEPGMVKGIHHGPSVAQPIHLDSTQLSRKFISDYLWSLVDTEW

T1 sequence (O14777 whole entry): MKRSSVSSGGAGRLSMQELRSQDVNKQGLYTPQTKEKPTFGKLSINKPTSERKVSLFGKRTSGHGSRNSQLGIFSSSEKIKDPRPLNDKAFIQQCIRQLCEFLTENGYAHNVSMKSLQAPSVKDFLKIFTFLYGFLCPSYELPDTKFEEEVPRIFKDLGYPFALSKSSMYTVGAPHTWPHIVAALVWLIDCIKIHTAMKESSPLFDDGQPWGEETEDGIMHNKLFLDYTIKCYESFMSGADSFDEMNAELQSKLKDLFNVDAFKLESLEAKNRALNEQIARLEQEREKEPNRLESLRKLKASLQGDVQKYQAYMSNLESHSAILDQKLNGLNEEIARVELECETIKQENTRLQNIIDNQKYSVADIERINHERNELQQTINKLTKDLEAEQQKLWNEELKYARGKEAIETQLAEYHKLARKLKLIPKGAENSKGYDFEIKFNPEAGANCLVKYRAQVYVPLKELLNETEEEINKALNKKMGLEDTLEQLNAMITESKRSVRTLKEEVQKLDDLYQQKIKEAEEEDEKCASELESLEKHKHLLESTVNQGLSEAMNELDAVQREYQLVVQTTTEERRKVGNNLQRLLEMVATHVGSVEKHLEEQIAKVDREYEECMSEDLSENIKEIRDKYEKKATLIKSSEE
T1 sequence (Q9BZD4 whole entry partner): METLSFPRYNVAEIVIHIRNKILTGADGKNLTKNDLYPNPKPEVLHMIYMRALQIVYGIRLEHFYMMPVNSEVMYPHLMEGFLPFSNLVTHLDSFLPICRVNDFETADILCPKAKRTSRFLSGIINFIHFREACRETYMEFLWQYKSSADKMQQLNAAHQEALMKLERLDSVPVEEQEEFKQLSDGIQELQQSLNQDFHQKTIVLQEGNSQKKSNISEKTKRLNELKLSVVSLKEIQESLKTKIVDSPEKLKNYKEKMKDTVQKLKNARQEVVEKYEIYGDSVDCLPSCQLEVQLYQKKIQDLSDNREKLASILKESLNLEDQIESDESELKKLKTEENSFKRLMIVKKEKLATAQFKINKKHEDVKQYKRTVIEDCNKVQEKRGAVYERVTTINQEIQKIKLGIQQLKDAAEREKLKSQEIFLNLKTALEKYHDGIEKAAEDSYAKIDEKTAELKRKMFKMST
T1 sequence (Q8NBT2 whole entry partner): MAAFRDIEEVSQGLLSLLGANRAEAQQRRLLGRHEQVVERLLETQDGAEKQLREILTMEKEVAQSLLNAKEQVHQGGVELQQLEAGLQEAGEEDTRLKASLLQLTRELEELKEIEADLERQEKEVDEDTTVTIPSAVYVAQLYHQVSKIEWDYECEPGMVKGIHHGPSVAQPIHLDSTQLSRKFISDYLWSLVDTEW
T1 sequence (Q9HBM1 whole entry partner): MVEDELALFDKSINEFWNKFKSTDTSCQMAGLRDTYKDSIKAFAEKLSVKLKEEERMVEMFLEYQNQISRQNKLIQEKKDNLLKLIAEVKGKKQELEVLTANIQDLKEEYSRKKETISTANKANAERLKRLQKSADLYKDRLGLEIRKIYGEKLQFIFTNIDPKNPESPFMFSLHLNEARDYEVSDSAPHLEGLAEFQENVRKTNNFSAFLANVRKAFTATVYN

SMILES: CC#CC(=O)N1CCc2c([nH]c3ccccc23)C1c1ccc(OC)c(C)c1 (stereo not drawn) [VTT-006, 2-(2-butynoyl)-1-(4-methoxy-3-methylphenyl)-2,3,4,9-tetrahydro-1H-beta-carboline]
- koff [1]: residence time of Ndc80-GFP on microtubules was significantly shorter in the presence of VTT-006
- Kd [2]: 2070 ± 2840 nM
